The values below come from patent US20090047246A1, “NOVEL INHIBITORS OF HEPATITIS C VIRUS REPLICATION” (InterMune, Inc., priority 2007, published 2009).

Like-named read-outs stand apart in the source and are kept apart here.

In the assay the target is T1, HCV NS3 helicase (Hepatitis C virus genotype 1b, UniProt P26663).
T1 construct: full-length NS3 (1-631), purified at Array BioPharma
In words: HCV Helicase Prompt FRET Assay (Example A). The assay is classed as biochemical. Summed up:
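Initial unwinding rates, monitored as FAM fluorescence gain (ex 485, em 535) over ~30 min at room temperature, gave IC50 via 4- or 5-parameter logistic fits. Reactions: 50 nM quenched duplex, 250 nM capture strand, 300 μM ATP, 5–6 nM NS3 1-631 after 5 min compound preincubation, MOPS pH 7.0 buffer, 2% DMSO.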

Where [1] appears, read: HCV NS3 helicase, tables do not say whether Example A or Example B assay, read-out: IC50 Activity.

T1 sequence (P26663 1027-1657): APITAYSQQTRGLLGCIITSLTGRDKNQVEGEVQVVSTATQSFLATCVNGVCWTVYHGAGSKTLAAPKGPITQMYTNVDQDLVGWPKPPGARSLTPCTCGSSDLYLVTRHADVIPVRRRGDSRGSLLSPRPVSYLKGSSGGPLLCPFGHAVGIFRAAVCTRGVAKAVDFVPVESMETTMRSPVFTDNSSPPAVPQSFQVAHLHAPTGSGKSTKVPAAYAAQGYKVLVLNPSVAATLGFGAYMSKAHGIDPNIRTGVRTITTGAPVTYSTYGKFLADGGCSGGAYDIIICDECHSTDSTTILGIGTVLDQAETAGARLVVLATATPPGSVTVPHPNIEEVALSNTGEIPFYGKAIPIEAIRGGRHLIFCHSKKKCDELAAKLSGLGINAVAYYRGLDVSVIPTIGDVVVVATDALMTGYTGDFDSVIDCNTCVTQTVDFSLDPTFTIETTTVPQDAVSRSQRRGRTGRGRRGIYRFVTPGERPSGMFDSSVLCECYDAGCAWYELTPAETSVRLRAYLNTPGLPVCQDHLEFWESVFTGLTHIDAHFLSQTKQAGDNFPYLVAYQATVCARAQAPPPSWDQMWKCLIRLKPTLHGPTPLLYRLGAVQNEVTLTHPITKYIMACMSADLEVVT

As for `Nc1cc(-c2ccc3c(CC(=O)O)cn(Cc4csc5ccc(Cl)cc45)c3c2)cc([N+](=O)[O-])c1` [Example 365], the IC50 (commonly the concentration needed to halve the response being measured) under setting [1] is below 10 µM.

`O=C(O)Cc1c(Cc2csc3ccc(Cl)cc23)n(Cc2ccccc2)c2cc(OCc3ccccc3)ccc12` [Example 366]: the IC50 under setting [1] was below 10 µM.

As for `C=CCn1c(Cc2csc3ccc(Cl)cc23)c(CC(=O)O)c2ccc(OCc3ccccc3)cc21` [Example 367], under setting [1], the IC50 was below 10 µM.

For the compound `Cn1c(Cc2csc3ccc(Cl)cc23)c(CC(=O)O)c2ccc(OCc3ccccc3)cc21` [Example 368], under setting [1], the IC50 is below 10 µM.

With `O=C(O)Cc1c(Cc2csc3ccc(Cl)cc23)n(CC2CC2)c2cc(OCc3ccccc3)ccc12` [Example 369], the IC50 under setting [1] was below 10 µM.

`CCn1c(Cc2csc3ccc(Cl)cc23)c(CC(=O)O)c2ccc(OCc3ccccc3)cc21` [Example 370]: the IC50 under setting [1] was below 10 µM.

In the case of `Cc1cc([N+](=O)[O-])ccc1-n1c(Cc2csc3ccc(Cl)cc23)c(CC(=O)O)c2ccc(OCc3ccccc3)cc21` [Example 371], under setting [1], the IC50 is below 10 µM.

For the compound `O=C(O)Cc1c(Cc2csc3ccc(Cl)cc23)n(-c2ccc([N+](=O)[O-])cc2)c2cc(OCc3ccccc3)ccc12` [Example 372], the IC50 under setting [1] is below 10 µM.

As to `Nc1cc(N)cc(-c2ccc3c(CC(=O)O)cn(Cc4csc5ccc(Cl)cc45)c3c2)c1` [Example 373], the IC50 under setting [1] was below 10 µM.

On to `O=C(O)Cc1c(Cc2csc3ccc(Cl)cc23)[nH]c2ccc(Br)cc12` [Example 374], for which the IC50 under setting [1] was 10 to 50 µM.

As to `Cc1cc([N+](=O)[O-])ccc1-n1ccc2cc(Br)ccc21` [Example 376], the IC50 under setting [1] was above 50 µM.

Regarding `Cc1cc([N+](=O)[O-])ccc1-n1cc(CC(=O)O)c2ccccc21` [Example 377], the IC50 under setting [1] is above 50 µM.

Regarding `COC(=O)Cc1cn(-c2ccc([N+](=O)[O-])cc2C)c2ccc(Br)cc12` [Example 378], under setting [1], the IC50 was above 50 µM.

On to `CCOC(=O)C(=O)c1cn(-c2ccc([N+](=O)[O-])cc2C)c2ccc(Br)cc12` [Example 379], for which the IC50 under setting [1] was in the range of 10 to 50 µM.

On to `Cc1ccc2c(c1)c(CC(=O)O)cn2-c1ccc([N+](=O)[O-])cc1C` [Example 380], for which, under setting [1], the IC50 is above 50 µM.

As for `Cc1cc([N+](=O)[O-])ccc1-n1cc(C(=O)C(=O)O)c2cc(Br)ccc21` [Example 381], the IC50 under setting [1] was in the range of 10 to 50 µM.

As to `Cc1cc([N+](=O)[O-])ccc1-n1cc(C(=O)O)c2cc(Br)ccc21` [Example 382], the IC50 under setting [1] is above 50 µM.

Take `CCOC(=O)C(F)(F)c1cn(-c2ccc([N+](=O)[O-])cc2C)c2ccc(Br)cc12` [Example 383]: the IC50 under setting [1] is 10 to 50 µM.

Regarding `Cc1cc([N+](=O)[O-])ccc1-n1cc(C(=O)C(N)=O)c2cc(Br)ccc21` [Example 384], the IC50 under setting [1] was above 50 µM.

For the compound `CCN(CC)C(=O)C(=O)c1cn(-c2ccc([N+](=O)[O-])cc2C)c2ccc(Br)cc12` [Example 385], under setting [1], the IC50 is above 50 µM.

On to `Cc1cc([N+](=O)[O-])ccc1-n1cc(CCC(=O)O)c2cc(Br)ccc21` [Example 386], for which, under setting [1], the IC50 lay in the range of 10 to 50 µM.

In the case of `COC(=O)C(c1ccccc1)c1cn(-c2ccc([N+](=O)[O-])cc2C)c2ccc(Br)cc12` (stereo not shown) [Example 387], the IC50 by setting is: (2nd test, read-out: IC50 Activity (on 2nd test)) above 50 µM; under setting [1], 10 to 50 µM.

Turning to `Cc1cc([N+](=O)[O-])ccc1-n1cc(C(C(=O)O)c2ccccc2)c2cc(Br)ccc21` (stereo not shown) [Example 388], the IC50 under setting [1] is below 10 µM.

The compound `CCOC(=O)C(O)(c1cn(-c2ccc([N+](=O)[O-])cc2C)c2ccc(Br)cc12)C(F)(F)F` (stereo not shown) [Example 389] showed an IC50 (IC50 Activity, HCV NS3 helicase, tables do not say whether Example A or Example B assay) above 50 µM.

Turning to `COC(=O)C(C)c1cn(-c2ccc([N+](=O)[O-])cc2C)c2ccc(Br)cc12` (stereo not shown) [Example 390], under setting [1], the IC50 was above 50 µM.

Take `Cc1cc([N+](=O)[O-])ccc1-n1cc(C(C)C(=O)O)c2cc(Br)ccc21` (stereo not shown) [Example 391]: the IC50 under setting [1] is 10 to 50 µM.

Regarding `Cc1cc([N+](=O)[O-])ccc1-n1cc(C(O)(C(=O)O)C(F)(F)F)c2cc(Br)ccc21` (stereo not shown) [Example 392], the IC50 under setting [1] is below 10 µM.

As to `COC(=O)CC1CN(c2ccc([N+](=O)[O-])cc2C)c2ccc(Br)cc21` (stereo not shown) [Example 393], under setting [1], the IC50 lay in the range of 10 to 50 µM.

On to `CCOC(=O)C(O)c1cn(-c2ccc([N+](=O)[O-])cc2C)c2ccc(Br)cc12` (stereo not shown) [Example 394], for which the IC50 under setting [1] was above 50 µM.

For the compound `Cc1cc([N+](=O)[O-])ccc1N1CC(CC(=O)O)c2cc(Br)ccc21` (stereo not shown) [Example 395], under setting [1], the half-inhibitory concentration (IC50) lay within 10 to 50 µM.

Consider `COC(=O)C(c1ccc([N+](=O)[O-])cc1C)c1cn(-c2ccc([N+](=O)[O-])cc2C)c2ccc(Br)cc12` (stereo not shown) [Example 396], for which, under setting [1], the IC50 was below 10 µM.

For the compound `COC(=O)C(Cc1ccccc1)c1cn(-c2ccc([N+](=O)[O-])cc2C)c2ccc(Br)cc12` (stereo not shown) [Example 397], the IC50 under setting [1] was above 50 µM.

As to `Cc1cc([N+](=O)[O-])ccc1-n1cc(C(Cc2ccccc2)C(=O)O)c2cc(Br)ccc21` (stereo not shown) [Example 398], under setting [1], the IC50 was below 10 µM.

Take `Cc1cc([N+](=O)[O-])ccc1Cc1cn(-c2ccc([N+](=O)[O-])cc2C)c2ccc(Br)cc12` [Example 399]: the IC50 under setting [1] lay within 10 to 50 µM.

As to `COC(=O)C(c1ccc([N+](=O)[O-])cc1C)C1CN(c2ccc([N+](=O)[O-])cc2C)c2ccc(Br)cc21` (stereo not shown) [Example 400], the IC50 under setting [1] was in the range of 10 to 50 µM.

`Cc1cc([N+](=O)[O-])ccc1-n1cc(C(=O)C(=O)N2CCCC2)c2cc(Br)ccc21` [Example 401]: the IC50 under setting [1] is above 50 µM.

As to `Cc1cc([N+](=O)[O-])ccc1-n1cc(C(O)(C(=O)N2CCCC2)C(F)(F)F)c2cc(Br)ccc21` (stereo not shown) [Example 402], the IC50 under setting [1] was above 50 µM.

With `COC(=O)C(c1ccc([N+](=O)[O-])cc1C)C1CN(c2ccc([N+](=O)[O-])cc2C)c2ccc(Br)cc21` (stereo not shown) [Example 403], the IC50 (numeric bound instead of class symbol, read-out: IC50 Activity) was above 20 µM.

Take `Cc1cc([N+](=O)[O-])ccc1C(C(=O)O)C1CN(c2ccc([N+](=O)[O-])cc2C)c2ccc(Br)cc21` (stereo not shown) [Example 404]: the IC50 under setting [1] was 10 to 50 µM.

For the compound `Cc1cc([N+](=O)[O-])ccc1CC1CN(c2ccc([N+](=O)[O-])cc2C)c2ccc(Br)cc21` (stereo not shown) [Example 405], the IC50 under setting [1] was 10 to 50 µM.

For the compound `Cc1cc([N+](=O)[O-])ccc1C(C(=O)O)C1CN(c2ccc([N+](=O)[O-])cc2C)c2ccc(Br)cc21` (stereo not shown) [Example 406], the IC50 under setting [1] was 10 to 50 µM.

In the case of `COC(=O)C(Cc1ccc(C(C)C)cc1)c1cn(-c2ccc([N+](=O)[O-])cc2C)c2ccc(Br)cc12` (stereo not shown) [Example 407], the IC50 under setting [1] was above 50 µM.

As to `Cc1cc([N+](=O)[O-])ccc1-n1cc(C(Cc2ccc(C(C)C)cc2)C(=O)O)c2cc(Br)ccc21` (stereo not shown) [Example 408], the IC50 under setting [1] lay in the range of 10 to 50 µM.

As to `COC(=O)C(Cc1ccccc1)c1cn(Cc2ccc(C(C)C)cc2)c2ccc(Br)cc12` (stereo not shown) [Example 409], the IC50 under setting [1] is above 50 µM.

As to `CC(C)c1ccc(Cn2cc(C(Cc3ccccc3)C(=O)O)c3ccccc32)cc1` (stereo not shown) [Example 410], the IC50 under setting [1] was below 10 µM.

For `O=C(O)C(Cc1c[nH]c2ccc(Br)cc12)c1c[nH]c2ccc(Br)cc12` (stereo not shown) [Example 411], under setting [1], the IC50 was 10 to 50 µM.

For `CCOC(=O)Cc1c(-c2ccccc2)n(Cc2csc3ccc(Cl)cc23)c2ccccc12` [Example 412], the IC50 under setting [1] was above 50 µM.

For `CCOC(=O)C(Cc1ccccc1)c1c(-c2ccccc2)n(Cc2csc3ccc(Cl)cc23)c2ccccc12` (stereo not shown) [Example 413], the IC50 under setting [1] is above 50 µM.

With `O=C(O)Cc1c(-c2ccccc2)n(Cc2csc3ccc(Cl)cc23)c2ccccc12` [Example 414], the IC50 under setting [1] was below 10 µM.

With `O=C(O)C(Cc1ccccc1)c1c(-c2ccccc2)n(Cc2csc3ccc(Cl)cc23)c2ccccc12` (stereo not shown) [Example 415], under setting [1], the IC50 was below 10 µM.

In the case of `Cc1cc([N+](=O)[O-])ccc1-n1cc(C(CC2CC2)C(=O)O)c2ccccc21` (stereo not shown) [Example 416], the IC50 under setting [1] is 10 to 50 µM.

As to `CC(C)c1ccc(Cn2cc(C(=O)C(=O)O)c3ccccc32)cc1` [Example 417], the IC50 under setting [1] was 10 to 50 µM.

Regarding `CC(C)c1ccc(Cn2cc(C(N)C(=O)O)c3ccccc32)cc1` (stereo not shown) [Example 418], the IC50 under setting [1] is above 50 µM.

With `CC(C)c1ccc(Cn2cc(C(NC(=O)OC(C)(C)C)C(=O)O)c3ccccc32)cc1` (stereo not shown) [Example 419], under setting [1], the IC50 is 10 to 50 µM.

For the compound `CC(=O)NC(C(=O)O)c1cn(Cc2ccc(C(C)C)cc2)c2ccccc12` (stereo not shown) [Example 420], under setting [1], the IC50 lay in the range of 10 to 50 µM.

On to `COC(=O)C(NC(=O)c1c[nH]cn1)c1cn(Cc2ccc(C(C)C)cc2)c2ccccc12` (stereo not shown) [Example 421], for which the IC50 under setting [1] was above 50 µM.

For the compound `CC(C)c1ccc(Cn2cc(C(NC(=O)c3c[nH]cn3)C(=O)O)c3ccccc32)cc1` (stereo not shown) [Example 422], the IC50 under setting [1] lay within 10 to 50 µM.

For `CC(C)c1ccc(Cn2cc(C(NC(N)=O)C(=O)O)c3ccccc32)cc1` (stereo not shown) [Example 423], the IC50 under setting [1] was in the range of 10 to 50 µM.

`CC(C)c1ccc(Cn2cc(CC(=O)O)c3ccccc32)cc1` [Example 424]: the IC50 under setting [1] was 10 to 50 µM.

For `CN(Cc1ccccc1)c1ccc(-n2cc(C(O)(C(=O)O)C(F)(F)F)c3ccccc32)cc1` (stereo not shown) [Example 425], the IC50 under setting [1] is below 10 µM.

In the case of `CCOC(=O)c1c(CC(=O)O)c2cc(Br)ccc2n1Cc1ccc(C(C)C)cc1` [Example 427], the IC50 under setting [1] lay within 10 to 50 µM.

`CC(C)c1ccc(Cn2c(C(=O)N3CCOCC3)c(CC(=O)O)c3cc(Br)ccc32)cc1` [Example 428]: the IC50 under setting [1] was above 50 µM.

Turning to `CC(C)c1ccc(Cn2c(C(=O)N3CCNC(=O)C3)c(CC(=O)O)c3cc(Br)ccc32)cc1` [Example 429], under setting [1], the IC50 is above 50 µM.

Turning to `CC(C)c1ccc(Cn2c(C(=O)N3CCNCC3)c(CC(=O)O)c3cc(Br)ccc32)cc1` [Example 430], under setting [1], the IC50 was above 50 µM.

On to `CC(C)c1ccc(Cn2c(C(=O)N3CCCC3)c(CC(=O)O)c3cc(Br)ccc32)cc1` [Example 431], for which, under setting [1], the IC50 was 10 to 50 µM.

In the case of `CCN(CC)C(=O)c1c(CC(=O)O)c2cc(Br)ccc2n1Cc1ccc(C(C)C)cc1` [Example 432], the IC50 under setting [1] is 10 to 50 µM.
